Assays:
[1] = Measurement of Log P values by HPLC on reversed phase columns (EEC directive 79/831 Annex V.A8); format: physicochemical; details: reversed phase HPLC column, method [a]: LC-UV, acidic range, 0.1% formic acid in water and acetonitrile as eluent
Procedure, shortened: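 Log P derived from retention on reversed-phase columns (EEC directive 79/831 Annex V.A8), LC-UV, acetonitrile gradient 10% to 95% against water containing 0.1% formic acid, 0.001 M ammonium acetate, or 0.1% phosphoric acid; several values per method separated by "+".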

Botrytis cinerea [2] = assay: In vivo preventive test on Botrytis cinerea (grey mould); details: 500 ppm of active ingredient, preventive spray on gherkin or cabbage, evaluated 4 to 5 days after inoculation, read-out: efficacy
Procedure, shortened: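 Preventive spray on cabbage or gherkin seedlings, with compound formulated in DMSO/acetone/Tween 80 and water-diluted, preceded spore inoculation by 24 hours. Cabbage was held 4 to 5 days at 20° C., 100% relative humidity; gherkin 4 to 5 days at 17° C., 90% relative humidity.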

Pyrenophora teres [3] = assay: In vivo preventive test on Pyrenophora teres (net blotch on barley); details: 240 h, 500 ppm of active ingredient, preventive spray on barley, evaluated 10 days after inoculation, read-out: efficacy
Procedure, shortened: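 Net blotch spores were sprayed onto barley leaves one day after foliar treatment with water-diluted DMSO/acetone/Tween 80 formulations (solvent-only controls). Plants were kept at 20° C: first 48 hours at 100% relative humidity, then 8 days at 70-80%.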

Sphaerotheca fuliginea = assay: In vivo preventive test on Sphaerotheca fuliginea (powdery mildew on cucurbits); details: Podosphaera fuliginea, 192 h; 500 ppm of active ingredient; preventive spray on gherkin; evaluated 8 days after inoculation; read-out: efficacy
Procedure, shortened: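 This is a preventive spray test on gherkin seedlings, with compound formulated in DMSO/acetone/Tween 80 in water and solvent-only controls. Spore inoculation followed one day after treatment. Incubation lasted 8 days at 20 °C, 70–80% RH.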

[4] = test system: Colletotrichum lindemuthianum; assay: In vivo preventive test on Colletotrichum lindemuthianum (leaf spot on bean); details: 168 h, 500 ppm of active ingredient, preventive spray on bean, evaluated 7 days after inoculation, read-out: efficacy
Procedure, shortened: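 Young bean plants sprayed with compound in DMSO/acetone/Tween 80 diluted in water; solvent-only controls. Inoculated 24 h later with C. lindemuthianum spore suspension, then kept 24 h at 20 °C/100% RH and 6 days at 20 °C/90% RH.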

Alternaria alternata = Alternaria alternata in vitro cell test; format: cell-based; details: 120 h, 20 ppm of active ingredient, liquid culture, 5 days incubation, spectrometric measurement of mycelium growth, read-out: efficacy (inhibition of fungal growth)
Procedure, shortened: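 Spectrometric readout of mycelial growth after 5-day incubation gauged compound effects on spore germination and growth of A. alternata in liquid medium. Compounds were delivered in DMSO at ≤1% final. Absorbance was compared with untreated controls to give inhibition.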

[5] = test system: Colletotrichum lindemuthianum; assay: B-8. Colletotrichum lindemuthianum in vitro cell test; format: cell-based; details: 144 h, 20 ppm of active ingredient, 6 days incubation, liquid culture, absorbance, read-out: efficacy (inhibition of fungal growth)
Procedure, shortened: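 Liquid-culture germination/growth test: compounds in ≤1% final DMSO were added to spore-containing medium. Fungal growth was quantified spectrophotometrically after 6 days of incubation and expressed as inhibition versus untreated controls.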

Septoria tritici = assay: B-9. Septoria tritici in vitro cell test; format: cell-based; details: Zymoseptoria tritici, 168 h; 20 ppm of active ingredient; 7 days incubation; liquid culture, absorbance; read-out: efficacy (inhibition of fungal growth)
Protocol: B-9. Septoria tritici In Vitro Cell Test [table] Fungicides were solubilized in DMSO and the solution used to prepare the required range of concentrations. The final concentration of DMSO used in the assay was ≤1%. A spore suspension of S. tritici was prepared and diluted to the desired spore density. Fungicides were evaluated for their ability to inhibit spore germination and mycelium growth in liquid culture assay. The compounds were added in the desired concentration to the culture medium with spores. After 7 days incubation, fungi-toxicity of compounds was determined by spectrometric measurement of mycelium growth. Inhibition of fungal growth was determined by comparing the absorbance values in wells containing the fungicides with the absorbance in control wells without fungicides.

Pyrenophora teres [6] = assay: B-10. Pyrenophora teres in vitro cell test; format: cell-based; details: 144 h, 20 ppm of active ingredient, 6 days incubation, liquid culture, absorbance, read-out: efficacy (inhibition of fungal growth)
Procedure, shortened: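 Liquid-culture assay on a P. teres spore suspension with compounds added to the medium from DMSO solutions, final DMSO ≤1%. Mycelium growth read spectrometrically after 6 days. Inhibition calculated from absorbance against untreated control wells.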

Botrytis cinerea [7] = assay: B-11. Botrytis cinerea in vitro cell test; format: cell-based; details: 144 h, 20 ppm of active ingredient, 6 days incubation, liquid culture, absorbance, read-out: efficacy (inhibition of fungal growth)
Procedure, shortened: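 B. cinerea spores were grown in liquid culture with compound (DMSO ≤1% final). Mycelium growth was measured spectrometrically after 6 days, with inhibition taken as absorbance relative to untreated control wells.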

Alternaria brassicae = assay: In vivo preventive test on Alternaria brassicae (leaf spot on radish or cabbage); details: 500 ppm of active ingredient, preventive spray on radish or cabbage, evaluated 3 to 4 days after inoculation, read-out: efficacy
Procedure, shortened: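 Protective spray on young radish or cabbage: actives in water diluted from DMSO/acetone/Tween 80, with solvent-only controls. Leaves were challenged after 24 h with a spore suspension, and plants were held at 100% RH, 20 °C for 3 to 4 days.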

O=C(NCC(F)(F)c1ccc(Cl)cc1Cl)c1c(Oc2cccc(C3CC3)c2F)nnc2c1CCCC2 [I-196]
4.28: chromatographic logP [1]
90 to 100%: pest or weed control at 500 ppm (Botrytis cinerea [2]) | pest or weed control at 500 ppm (Pyrenophora teres [3]) | pest or weed control at 500 ppm (Sphaerotheca fuliginea) | pest or weed control at 500 ppm [4] | inhibition at 20 ppm (Alternaria alternata) | inhibition at 20 ppm [5] | inhibition at 20 ppm (Septoria tritici) | inhibition at 20 ppm (Pyrenophora teres [6]) | inhibition at 20 ppm (Botrytis cinerea [7])

Cc1cc(Br)ccc1C(F)(F)CNC(=O)c1c(Oc2cccc(C(F)(F)F)c2)nnc2c1CCC2 [I-206]
90 to 100%: pest or weed control at 500 ppm (Botrytis cinerea [2]) | pest or weed control at 500 ppm (Pyrenophora teres [3]) | pest or weed control at 500 ppm (Sphaerotheca fuliginea) | pest or weed control at 500 ppm [4] | inhibition at 20 ppm (Alternaria alternata) | inhibition at 20 ppm [5] | inhibition at 20 ppm (Septoria tritici) | inhibition at 20 ppm (Pyrenophora teres [6]) | inhibition at 20 ppm (Botrytis cinerea [7])
4.17: chromatographic logP [1]

O=C(NCC(F)(F)c1ccc(Br)cc1Cl)c1c(Oc2cccc(C(F)(F)F)c2)nnc2c1CCCC2 [I-207]
90 to 100%: pest or weed control at 500 ppm (Botrytis cinerea [2]) | pest or weed control at 500 ppm (Pyrenophora teres [3]) | pest or weed control at 500 ppm (Sphaerotheca fuliginea) | pest or weed control at 500 ppm [4] | inhibition at 20 ppm (Alternaria alternata) | inhibition at 20 ppm [5] | inhibition at 20 ppm (Septoria tritici) | inhibition at 20 ppm (Pyrenophora teres [6]) | inhibition at 20 ppm (Botrytis cinerea [7])
4.28: chromatographic logP [1]

COc1cc([C@@H](F)CNC(=O)c2c(Oc3cccc(C(F)(F)F)c3)nnc3ccccc23)ccc1Cl (racemic) [I-176]
90 to 100%: pest or weed control at 500 ppm (Alternaria brassicae) | inhibition at 20 ppm (Alternaria alternata) | inhibition at 20 ppm (Pyrenophora teres [6]) | inhibition at 20 ppm (Botrytis cinerea [7])
70 to 79%: pest or weed control at 500 ppm [4]
3.92: chromatographic logP [1]
80 to 89%: pest or weed control at 500 ppm (Pyrenophora teres [3]) | inhibition at 20 ppm (Septoria tritici)

Cc1ccc(C(F)(F)CNC(=O)c2c(Oc3cccc(Cl)c3)cnc3nccnc23)c(C)c1 [I-234]
80 to 89%: pest or weed control at 500 ppm [4]
3.37: chromatographic logP [1]
90 to 100%: pest or weed control at 500 ppm (Alternaria brassicae) | pest or weed control at 500 ppm (Botrytis cinerea [2]) | inhibition at 20 ppm (Alternaria alternata) | inhibition at 20 ppm [5] | inhibition at 20 ppm (Septoria tritici) | inhibition at 20 ppm (Pyrenophora teres [6]) | inhibition at 20 ppm (Botrytis cinerea [7])

Cc1ccc(C(F)(F)CNC(=O)c2c(Oc3cccc(C4CC4)c3F)cnc3nccnc23)c(C)c1 [I-099]
90 to 100%: pest or weed control at 500 ppm (Alternaria brassicae) | pest or weed control at 500 ppm (Botrytis cinerea [2]) | pest or weed control at 500 ppm [4] | inhibition at 20 ppm (Alternaria alternata) | inhibition at 20 ppm [5] | inhibition at 20 ppm (Pyrenophora teres [6]) | inhibition at 20 ppm (Botrytis cinerea [7])
80 to 89%: inhibition at 20 ppm (Septoria tritici)
3.71: chromatographic logP [1]

O=C(NCCc1ccc2c(c1)CCO2)c1c(Oc2cccc(C(F)(F)F)c2)nnc2ccccc12 [I-081]
90 to 100%: pest or weed control at 500 ppm (Alternaria brassicae) | pest or weed control at 500 ppm (Botrytis cinerea [2]) | pest or weed control at 500 ppm [4] | inhibition at 20 ppm (Alternaria alternata) | inhibition at 20 ppm [5] | inhibition at 20 ppm (Pyrenophora teres [6]) | inhibition at 20 ppm (Botrytis cinerea [7])
3.53: chromatographic logP [1]
70 to 79%: inhibition at 20 ppm (Septoria tritici)

Cc1ccc(CCNC(=O)c2c(Oc3cccc(C(F)(F)F)c3)cnc3ccccc23)c(C)c1 [I-002]
90 to 100%: pest or weed control at 500 ppm (Botrytis cinerea [2]) | pest or weed control at 500 ppm (Sphaerotheca fuliginea) | inhibition at 20 ppm (Alternaria alternata) | inhibition at 20 ppm [5] | inhibition at 20 ppm (Septoria tritici) | inhibition at 20 ppm (Botrytis cinerea [7])
4.17: chromatographic logP [1]

Cc1ccc(C(F)(F)CNC(=O)c2c(Oc3cccc(C(F)(F)F)c3)nnc3c2CCCC3)c(C)c1 [I-115]
4.05: chromatographic logP [1]
90 to 100%: pest or weed control at 500 ppm (Alternaria brassicae) | pest or weed control at 500 ppm (Botrytis cinerea [2]) | pest or weed control at 500 ppm (Pyrenophora teres [3]) | pest or weed control at 500 ppm (Sphaerotheca fuliginea) | pest or weed control at 500 ppm [4] | inhibition at 20 ppm (Alternaria alternata) | inhibition at 20 ppm [5] | inhibition at 20 ppm (Septoria tritici) | inhibition at 20 ppm (Pyrenophora teres [6])

O=C(NCCc1ncc(Cl)cn1)c1c(Oc2cccc(C(F)(F)F)c2)nnc2ccccc12 [I-077]
2.91: chromatographic logP [1]
70 to 79%: pest or weed control at 500 ppm [4]
90 to 100%: pest or weed control at 500 ppm (Alternaria brassicae) | pest or weed control at 500 ppm (Botrytis cinerea [2]) | inhibition at 20 ppm (Alternaria alternata) | inhibition at 20 ppm [5] | inhibition at 20 ppm (Septoria tritici) | inhibition at 20 ppm (Pyrenophora teres [6]) | inhibition at 20 ppm (Botrytis cinerea [7])

Cc1ccc(C(F)(F)CNC(=O)c2c(Oc3cccc(C(F)(F)F)c3)nnc3cc(C4CC4)ccc23)cc1C [I-235]
5: chromatographic logP [1]
90 to 100%: pest or weed control at 500 ppm (Alternaria brassicae) | pest or weed control at 500 ppm (Botrytis cinerea [2]) | pest or weed control at 500 ppm (Sphaerotheca fuliginea) | inhibition at 20 ppm (Alternaria alternata) | inhibition at 20 ppm [5] | inhibition at 20 ppm (Septoria tritici) | inhibition at 20 ppm (Pyrenophora teres [6]) | inhibition at 20 ppm (Botrytis cinerea [7])
80 to 89%: pest or weed control at 500 ppm (Pyrenophora teres [3])

Cc1ccc(C(F)(F)CNC(=O)c2c(Oc3cccc(Br)c3)cnc3nccnc23)c(C)c1 [I-241, 7-(3-bromophenoxy)-N-[2-(2,4-dimethylphenyl)-2,2-difluoro-ethyl]pyrido[2,3-b]pyrazine-8-carboxamide]
90 to 100%: pest or weed control at 500 ppm (Alternaria brassicae) | pest or weed control at 500 ppm (Botrytis cinerea [2]) | pest or weed control at 500 ppm [4] | inhibition at 20 ppm (Alternaria alternata) | inhibition at 20 ppm [5] | inhibition at 20 ppm (Septoria tritici) | inhibition at 20 ppm (Pyrenophora teres [6]) | inhibition at 20 ppm (Botrytis cinerea [7])
3.46: chromatographic logP [1]

Cc1ccc(C(F)(F)CNC(=O)c2c(Oc3cccc(C(F)(F)F)c3)nnc3cc(C4CC4)ccc23)c(C)c1 [I-242]
70 to 79%: pest or weed control at 500 ppm (Pyrenophora teres [3])
80 to 89%: pest or weed control at 500 ppm (Sphaerotheca fuliginea) | inhibition at 20 ppm (Septoria tritici)
5.12: chromatographic logP [1]
90 to 100%: pest or weed control at 500 ppm (Alternaria brassicae) | pest or weed control at 500 ppm (Botrytis cinerea [2]) | inhibition at 20 ppm (Alternaria alternata) | inhibition at 20 ppm [5] | inhibition at 20 ppm (Pyrenophora teres [6]) | inhibition at 20 ppm (Botrytis cinerea [7])

O=C(NOCc1ccc(C(F)(F)F)cc1)c1c(Oc2cccc(C(F)(F)F)c2)nnc2ccccc12 [I-089]
3.42: chromatographic logP [1]
90 to 100%: pest or weed control at 500 ppm (Alternaria brassicae) | inhibition at 20 ppm (Alternaria alternata) | inhibition at 20 ppm [5] | inhibition at 20 ppm (Pyrenophora teres [6]) | inhibition at 20 ppm (Botrytis cinerea [7])
70 to 79%: pest or weed control at 500 ppm (Botrytis cinerea [2])
80 to 89%: inhibition at 20 ppm (Septoria tritici)

Cc1ccc(C(F)CNC(=O)c2c(Oc3cccc(Cl)c3)nnc3c2CCCC3)c(C)c1 (stereo not shown) [I-233]
3.73: chromatographic logP [1]
90 to 100%: inhibition at 20 ppm (Alternaria alternata) | inhibition at 20 ppm [5] | inhibition at 20 ppm (Septoria tritici) | inhibition at 20 ppm (Pyrenophora teres [6]) | inhibition at 20 ppm (Botrytis cinerea [7])

Cc1cc(Cl)ccc1C(F)(F)CNC(=O)c1c(Oc2cccc(C3CC3)c2F)nnc2c1CCCC2 [I-147]
90 to 100%: pest or weed control at 500 ppm (Alternaria brassicae) | pest or weed control at 500 ppm (Botrytis cinerea [2]) | pest or weed control at 500 ppm (Pyrenophora teres [3]) | pest or weed control at 500 ppm (Sphaerotheca fuliginea) | pest or weed control at 500 ppm [4] | inhibition at 20 ppm (Alternaria alternata) | inhibition at 20 ppm [5] | inhibition at 20 ppm (Septoria tritici) | inhibition at 20 ppm (Pyrenophora teres [6])
4.34: chromatographic logP [1]

Cc1ccc(C(F)(F)CNC(=O)c2c(Oc3cccc(C(F)(F)F)c3)nnc3c2COCC3)c(C)c1 [I-122]
90 to 100%: pest or weed control at 500 ppm (Alternaria brassicae) | pest or weed control at 500 ppm (Botrytis cinerea [2]) | pest or weed control at 500 ppm (Sphaerotheca fuliginea) | inhibition at 20 ppm (Alternaria alternata) | inhibition at 20 ppm [5] | inhibition at 20 ppm (Septoria tritici) | inhibition at 20 ppm (Pyrenophora teres [6]) | inhibition at 20 ppm (Botrytis cinerea [7])
80 to 89%: pest or weed control at 500 ppm [4]
3.7: chromatographic logP [1]
